Laboratory results from patent US20180340225A1 (SHANGHAI INSTITUTE FOR ENDOCRINE AND METABOLIC DISEASES, priority 2015, published 2018).

Tested on: patients with Type 2 diabetes
Assay: Clinical efficacy indexes before and after 3 months of Acarbose treatment in naïve patients with Type 2 diabetes, by enterotype
Type: in vivo, human
Conditions: Bacterioide enterotype, After treatment
Protocol: For naïve patients with Type 2 diabetes, their liver and kidney functions, blood glucose and lipid levels, intestinal hormones, inflammatory factors, and cardiovascular risk-related factors are evaluated before medication. Their stool, urine, and blood samples are retained. […] The patients' blood glucose levels are followed up every month within 3 months, and the medication is adjusted according to the blood glucose level. Three months later, the pre-medication assessment is repeated, and the urine, stool and blood samples are retained.
a) A randomized, opened, positive control method is adopted to collect the naïve patients with Type 2 diabetes and normal controls of their spouses. […] The newly diagnosed patients of Type 2 diabetes without medication receive routine examinations, including the retention of stool and blood samples.
i. Draw venous blood 15 ml under fasting condition, of which, 1.5 ml is used for detection of plasma glucose, 6.5 ml is added to ordinary tubes (including aprotinin, DPPV inhibitor), and 6.5 ml is added to anticoagulant tubes (including heparin and RNA later)
ii. Centrifuge the blood in ordinary tube at 4° C., when serum is separated out, draw about 3 ml, and divide to three 1.5 ml Eppendorf on average, then tighten the tube caps;
iii. Centrifuge the anticoagulation blood immediately at 4° C., to separate out about 3 ml of plasma, then divide to three 1.5 ml imported RNAase free Eppendorf tubes on average, […]

In the case of `C[C@H]1O[C@H](O[C@H]2[C@H](O)[C@@H](O)[C@@H](O[C@H]3[C@H](O)[C@@H](O)C(O)O[C@@H]3CO)O[C@@H]2CO)[C@H](O)[C@@H](O)[C@@H]1N[C@H]1C=C(CO)[C@@H](O)[C@H](O)[C@H]1O` (stereo partly shown) [Acarbose], the “AKP Mean” value is reported as 59.23, the “ALB Mean” value is reported as 42.26 and the “ALT Mean” value is reported as 29.43. The “APOA Mean” value was 1.2475, the “APOB Mean” value was 0.9636 and the “AST Mean” value was 22.46. The “Adipisin Mean” value was 3174901.441, the “Adpn Mean” value was 5157339.824 and the “BMI Mean” value was 25.51. For the same compound, the “BW Mean” value was 71.91, the “CP0 Mean” value was 2.216 and the “CP30 Mean” value was 2.7525. For the same compound, the “CP60 Mean” value was 3.71, the “CP120 Mean” value was 5.204 and the “CP180 Mean” value was 4.843. For the same compound, the “DBIL Mean” value was 2.966, the “DBP Mean” value was 75.37 and the “ENDOM Mean” value was 13.44. For the same compound, the “Endothelin Mean” value was 4.159, the “FABP3 Mean” value was 2351 and the “FABP4 Mean” value was 11504.54286. The “FGF1M Mean” value was 22.57, the “FGF2M Mean” value was 12.69 and the “FGF19M Mean” value was 19.74. The “FGF23M Mean” value was 37.07, the “G30 Mean” value was 7.623 and the “G60 Mean” value was 9.074. For the same compound, the “G120 Mean” value was 9.171, the “G180 Mean” value was 7.941 and the “GIP0 Mean” value was 80.26. For the same compound, the “GIP30 Mean” value was 219.1, the “GIP60 Mean” value was 258.945 and the “GIP120 Mean” value was 264. The “GIP180 Mean” value was 201.6, the “GMCSFM Mean” value was 64.62 and the “GO Mean” value was 6.607. The “HB Mean” value was 140.6, the “HBA1C Mean” value was 6.425 and the “HDL Mean” value was 2.989. For the same compound, the “HGF Mean” value was 434.2, the “HIP Mean” value was 98.83 and the “HOMA.IR Mean” value was 2.487. The “IFNr1 Mean” value was 42.1, the “IL1B Mean” value was 0.5324 and the “IL1bM Mean” value was 14.66. The “IL2M Mean” value was 53.46, the “IL4M Mean” value was 30.73 and the “IL5M Mean” value was 38.44. The “IL6M Mean” value was 55.85, the “IL6 Mean” value was 4.846 and the “IL8 Mean” value was 11.92. For the same compound, the “IL9M Mean” value was 84.63, the “IL10 Mean” value was 2.301 and the “IL12 Mean” value was 10.12. The “IL13 Mean” value was 311.7, the “IL15M Mean” value was 333.3 and the “IL17AM Mean” value was 33.74. For the same compound, the “IL17EM Mean” value was 22.24, the “IL17FM Mean” value was 181.4 and the “IL21 Mean” value was 29.13. The “IL22M Mean” value was 42.5, the “IL23M Mean” value was 39.35 and the “IL27 Mean” value was 61.28. For the same compound, the “IL28a Mean” value was 20.04, the “IL31M Mean” value was 113 and the “IL33M Mean” value was 42.13. The “INS0 Mean” value was 8.284, the “INS30 Mean” value was 14.5 and the “INS60 Mean” value was 23.7. The “INS120 Mean” value was 30.33, the “INS180 Mean” value was 22.83 and the “K Mean” value was 7.893. For the same compound, the “LBP Mean” value was 17.36, the “LDL Mean” value was 1.242 and the “LEPTIN Mean” value was 6481. The “LPA Mean” value was 32.841, the “Lymph Mean” value was 28.87 and the “MCP1 Mean” value was 256.6. For the same compound, the “MIP3A Mean” value was 43.77, the “NEU Mean” value was 58.47 and the “NGAL Mean” value was 125535.0294. For the same compound, the “NGF Mean” value was 1.865, the “Na Mean” value was 136.9 and the “PAI1 Mean” value was 52769.94118. The “PDGFAA Mean” value was 4702, the “PDGFAABB Mean” value was 24130.63636 and the “PP0 Mean” value was 80.32. The “PP30 Mean” value was 331.7, the “PP60 Mean” value was 330.8 and the “PP120 Mean” value was 258.8. For the same compound, the “PP180 Mean” value was 174, the “RANTES Mean” value was 50811.91176 and the “RBC Mean” value was 4.832. For the same compound, the “RCv Mean” value was 2.58, the “SBP Mean” value was 120.9 and the “TBIL Mean” value was 16.36. The “TC Mean” value was 4.736, the “TG Mean” value was 1.525 and the “TNFBM Mean” value was 38.44. For the same compound, the “TNFa Mean” value was 4.773, the “TPRO Mean” value was 70.11 and the “Trophonin M Mean” value was 16.15. The “WAIST Mean” value was 88.45, the “WBC Mean” value was 6.913 and the “WHR Mean” value was 0.8956. The “bun Mean” value was 329.2, the “creatine Mean” value was 67.61 and the “crp Mean” value was 29.96. The “egf Mean” value was 183.4, the “fetuinA Mean” value was 400.9 and the “fgf1 Mean” value was 11.66. For the same compound, the “fgf2 Mean” value was 35.4, the “fgf21M Mean” value was 100.1 and the “fgf21 Mean” value was 0.37. The “monocyte Mean” value was 5.481, the “mpo Mean” value was 275.8 and the “oscatinM Mean” value was 86.94. The “pCP0 Mean” value was 1099, the “pCP30 Mean” value was 1394 and the “pCP60 Mean” value was 1891. For the same compound, the “pCP120 Mean” value was 2787, the “pCP180 Mean” value was 2452 and the “pGLP10 Mean” value was 4.564. The “pGLP130 Mean” value was 12.21, the “pGLP160 Mean” value was 13.2 and the “pGLP1120 Mean” value was 10.47. For the same compound, the “pGLP1180 Mean” value was 7.518, the “pHOMA.IR Mean” value was 2.565 and the “pgh0 Mean” value was 55.75. The “pgh30 Mean” value was 70.15, the “pgh60 Mean” value was 66.51 and the “pgh120 Mean” value was 58.56. For the same compound, the “pgh0180 Mean” value was 60.3, the “pgluc0 Mean” value was 37.3 and the “pgluc30 Mean” value was 43.28. For the same compound, the “pgluc60 Mean” value was 43.96, the “pgluc120 Mean” value was 35.95 and the “pgluc180 Mean” value was 32.29. For the same compound, the “pins0 Mean” value was 391, the “pins30 Mean” value was 561.8 and the “pins60 Mean” value was 892.8875. For the same compound, the “pins120 Mean” value was 1169, the “pins180 Mean” value was 916.7 and the “platelet Mean” value was 214. For the same compound, the “ppyy0 Mean” value was 49.602, the “ppyy30 Mean” value was 55.74 and the “ppyy60 Mean” value was 59.37. The “ppyy120 Mean” value was 54.45, the “ppyy180 Mean” value was 56.15 and the “rGT Mean” value was 24.82. For the same compound, the “resistin Mean” value was 14639.64706, the “sicam1 Mean” value was 112.3 and the “svcam1 Mean” value was 484.8. For the same compound, the “urea Mean” value was 4.731, the “vegfa Mean” value was 475.2 and the “vegfc Mean” value was 106.3. The “vegfd Mean” value was 145.4.
